Test results: patent US6936585B2, “Corticotropin releasing factor 2 receptor agonists” (priority 2002, dated 2005)
pEC50: −log10 of the molar value. Where two headings read alike, the source gives them in different places. Peptide text beside a SMILES is read from it.

Legend:
[1] = molecular target: T1, CRF2R (Homo sapiens, UniProt Q13324); assay: CRF2R agonist activation (EC50 / Emax), called comparative CRF binding; type: cell-based; conditions: for Emax: read-out: CRF2R Emax
T1 sequence (Q13324 1-411): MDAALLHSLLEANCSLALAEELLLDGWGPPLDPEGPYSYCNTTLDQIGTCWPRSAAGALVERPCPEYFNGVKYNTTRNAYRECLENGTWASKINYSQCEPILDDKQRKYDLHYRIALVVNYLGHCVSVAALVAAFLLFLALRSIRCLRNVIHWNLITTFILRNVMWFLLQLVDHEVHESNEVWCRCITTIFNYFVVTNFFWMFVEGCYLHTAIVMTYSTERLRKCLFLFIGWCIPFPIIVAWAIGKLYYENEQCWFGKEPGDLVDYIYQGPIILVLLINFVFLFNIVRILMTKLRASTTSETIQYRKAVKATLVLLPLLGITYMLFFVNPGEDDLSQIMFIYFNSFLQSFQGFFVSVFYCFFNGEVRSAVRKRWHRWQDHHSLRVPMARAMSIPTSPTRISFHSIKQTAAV
Method in brief: (§1)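 Receptor-expressing cells are contacted with test peptide or the vehicle it is dissolved in. Lysates are then assayed for cAMP, or expression of a CRE-coupled reporter is quantitated. Engineered cells carrying receptor-G-protein fusions may replace full-length receptors.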

[2] = molecular target: T2, CRF1R (Homo sapiens, UniProt P34998); assay: CRF1R agonist activation (EC50 / Emax), called comparative CRF binding; type: cell-based; conditions: for Emax: read-out: CRF1R Emax
T2 sequence (P34998 24-415): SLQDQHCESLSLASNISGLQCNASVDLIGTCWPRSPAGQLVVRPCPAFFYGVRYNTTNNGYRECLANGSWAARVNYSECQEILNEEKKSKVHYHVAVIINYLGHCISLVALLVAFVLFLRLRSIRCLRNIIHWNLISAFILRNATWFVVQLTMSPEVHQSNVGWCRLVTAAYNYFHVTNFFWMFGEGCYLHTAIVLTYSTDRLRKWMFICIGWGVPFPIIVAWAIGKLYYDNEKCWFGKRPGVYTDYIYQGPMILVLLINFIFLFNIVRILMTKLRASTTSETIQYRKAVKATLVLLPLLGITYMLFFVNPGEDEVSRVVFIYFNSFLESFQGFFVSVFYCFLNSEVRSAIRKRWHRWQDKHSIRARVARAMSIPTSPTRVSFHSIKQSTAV
Method in brief: as §1

SMILES | Emax [1] [%] | Emax [2] [%] | pEC50 ([1]; read-out: CRF2R EC50) | pEC50 ([2]; read-out: CRF1R EC50) | pEC50 [1] | pEC50 ([2]; CRF1R EC50)
CC[C@H](C)[C@H](N)C(=O)N[C@H](C(=O)N[C@@H](CC(C)C)C(=O)N[C@@H](CO)C(=O)N[C@@H](CC(C)C)C(=O)N[C@@H](CC(=O)O)C(=O)N[C@H](C(=O)N1CCC[C@H]1C(=O)N[C@H](C(=O)NCC(=O)N[C@@H](CC(C)C)C(=O)N[C@@H](CC(C)C)C(=O)N[C@@H](CCC(N)=O)C(=O)N[C@H](C(=O)N[C@@H](CC(C)C)C(=O)N[C@@H](CC(C)C)C(=O)N[C@@H](CCC(=O)O)C(=O)N[C@@H](CCC(N)=O)C(=O)N[C@@H](CCC(=O)O)C(=O)N[C@@H](CCCCN)C(=O)N[C@@H](CCC(N)=O)C(=O)N[C@@H](CCC(=O)O)C(=O)N[C@@H](CCCCN)C(=O)N[C@@H](CCC(=O)O)C(=O)N[C@@H](CCCCN)C(=O)N[C@@H](CCC(N)=O)C(=O)N[C@@H](CCC(N)=O)C(=O)N[C@@H](C)C(=O)N[C@H](C(=O)N[C@H](C(=O)N[C@@H](CC(N)=O)C(=O)N[C@@H](C)C(=O)N[C@@H](CCCNC(=N)N)C(=O)N[C@H](C(=O)N[C@@H](CC(C)C)C(=O)N[C@@H](C)C(=O)N[C@@H](CCCNC(=N)N)C(=O)N[C@H](C(N)=O)C(C)C)[C@@H](C)CC)[C@@H](C)O)[C@@H](C)O)[C@@H](C)CC)[C@@H](C)CC)C(C)C)C(C)C [compound 167] (H-IVLSLDVPIGLLQILLEQEKQEKEKQQATTNARILARV-NH2; N-terminus assumed) | 100 | 15 |  |  |  | 
CC[C@H](C)[C@H](NC(=O)[C@H](CCCNC(=N)N)NC(=O)[C@H](C)NC(=O)[C@H](CC(N)=O)NC(=O)[C@H](CCC(N)=O)NC(=O)[C@H](CCC(=O)O)NC(=O)[C@H](C)NC(=O)[C@H](CCCNC(=N)N)NC(=O)[C@H](CCC(=O)O)NC(=O)[C@H](CCCNC(=N)N)NC(=O)[C@H](CCC(N)=O)NC(=O)[C@H](CO)NC(=O)[C@H](CCC(N)=O)NC(=O)[C@@H](NC(=O)[C@H](CCCCN)NC(=O)[C@H](CCC(=O)O)NC(=O)[C@H](CC(C)C)NC(=O)[C@H](CCC(=O)O)NC(=O)[C@H](CC(C)C)NC(=O)[C@H](CC(C)C)NC(=O)[C@@H](NC(=O)[C@H](CCCNC(=N)N)NC(=O)[C@H](CC(C)C)NC(=O)[C@H](CC(C)C)NC(=O)[C@H](CC(C)C)NC(=O)[C@H](CC(C)C)NC(=O)[C@@H]1CCCN1C(=O)[C@H](CC(C)C)NC(=O)[C@H](CC(=O)O)NC(=O)[C@@H](NC(=O)[C@H](CO)NC(=O)[C@H](CC(C)C)NC(=O)[C@H](CO)NC(=O)[C@@H]1CCCN1)[C@@H](C)CC)[C@@H](C)O)[C@@H](C)O)C(=O)N[C@@H](Cc1ccccc1)C(=O)N[C@@H](C)C(=O)N[C@@H](CCCNC(=N)N)C(=O)N[C@H](C(N)=O)C(C)C [compound 333] (H-PSLSIDLPLLLLRTLLELEKTQSQRERAEQNARIFARV-NH2; N-terminus assumed) | 96.9 | 43.8 | 8.01 | ≤ 6.00 |  | 
CC[C@H](C)[C@H](NC(=O)[C@H](C)NC(=O)[C@H](CC(N)=O)NC(=O)[C@H](CCC(N)=O)NC(=O)[C@H](CCC(=O)O)NC(=O)[C@H](C)NC(=O)[C@H](CCCNC(=N)N)NC(=O)[C@H](CCC(=O)O)NC(=O)[C@H](CCCNC(=N)N)NC(=O)[C@H](CCC(N)=O)NC(=O)[C@H](CO)NC(=O)[C@H](CCC(N)=O)NC(=O)[C@@H](NC(=O)[C@H](CCCNC(=N)N)NC(=O)[C@H](C)NC(=O)[C@H](CC(C)C)NC(=O)[C@H](CCC(=O)O)NC(=O)[C@H](CC(C)C)NC(=O)[C@H](CC(C)C)NC(=O)[C@@H](NC(=O)[C@H](CCCNC(=N)N)NC(=O)[C@H](CC(C)C)NC(=O)[C@H](CC(C)C)NC(=O)[C@H](Cc1ccc(O)cc1)NC(=O)[C@@H](NC(=O)[C@@H]1CCCN1C(=O)[C@H](CC(C)C)NC(=O)[C@H](CC(=O)O)NC(=O)[C@@H](NC(=O)[C@H](CO)NC(=O)[C@H](CC(C)C)NC(=O)[C@H](CO)NC(=O)[C@@H]1CCCN1C(=O)[C@H](CC(N)=O)NC(=O)[C@@H](N)CC(=O)O)[C@@H](C)CC)[C@@H](C)O)[C@@H](C)O)[C@@H](C)O)C(=O)N[C@H](C(=O)N[C@@H](Cc1ccccc1)C(=O)N[C@@H](C)C(=O)N[C@@H](CO)C(=O)N[C@H](C(N)=O)C(C)C)[C@@H](C)CC [compound 173] (H-DNPSLSIDLPTYLLRTLLELARTQSQRERAEQNAIIFASV-NH2) | 65.2 | 6.05 |  |  |  | 
CC[C@H](C)[C@H](N)C(=O)N[C@H](C(=O)N[C@@H](CC(C)C)C(=O)N[C@@H](CO)C(=O)N[C@@H](CC(C)C)C(=O)N[C@@H](CC(=O)O)C(=O)N[C@H](C(=O)N1CCC[C@H]1C(=O)N[C@H](C(=O)NCC(=O)N[C@@H](CC(C)C)C(=O)N[C@@H](CC(C)C)C(=O)N[C@@H](CCC(N)=O)C(=O)N[C@H](C(=O)N[C@@H](CC(C)C)C(=O)N[C@@H](CC(C)C)C(=O)N[C@@H](CCC(=O)O)C(=O)N[C@@H](CCC(N)=O)C(=O)N[C@@H](C)C(=O)N[C@@H](C)C(=O)N[C@@H](C)C(=O)N[C@@H](C)C(=O)N[C@@H](CCCNC(=N)N)C(=O)N[C@@H](CCC(=O)O)C(=O)N[C@@H](CCC(N)=O)C(=O)N[C@@H](C)C(=O)N[C@H](C(=O)N[C@H](C(=O)N[C@@H](CC(N)=O)C(=O)N[C@@H](C)C(=O)N[C@@H](CCCNC(=N)N)C(=O)N[C@H](C(=O)N[C@@H](CC(C)C)C(=O)N[C@@H](C)C(=O)N[C@@H](CCCNC(=N)N)C(=O)N[C@H](C(N)=O)C(C)C)[C@@H](C)CC)[C@@H](C)O)[C@@H](C)O)[C@@H](C)CC)[C@@H](C)CC)C(C)C)C(C)C [compound 134] (H-IVLSLDVPIGLLQILLEQAAAAREQATTNARILARV-NH2) | 19 | 7 |  |  |  | 
CC[C@H](C)[C@H](NC(=O)[C@H](CCCNC(=N)N)NC(=O)[C@H](C)NC(=O)[C@H](CC(N)=O)NC(=O)[C@H](CCC(N)=O)NC(=O)[C@H](CCC(=O)O)NC(=O)[C@H](C)NC(=O)[C@H](CCCNC(=N)N)NC(=O)[C@H](CCC(=O)O)NC(=O)[C@H](CCCNC(=N)N)NC(=O)[C@H](CCC(N)=O)NC(=O)[C@H](CO)NC(=O)[C@H](CCC(N)=O)NC(=O)[C@@H](NC(=O)[C@H](CCCCN)NC(=O)[C@H](CCC(=O)O)NC(=O)[C@H](CC(C)C)NC(=O)[C@H](CCC(=O)O)NC(=O)[C@H](CC(C)C)NC(=O)[C@H](CC(C)C)NC(=O)[C@@H](NC(=O)[C@H](CCCNC(=N)N)NC(=O)[C@H](CC(C)C)NC(=O)[C@H](CC(C)C)NC(=O)[C@@H](NC(=O)[C@H](CC(C)C)NC(=O)[C@@H]1CCCN1C(=O)[C@H](CC(C)C)NC(=O)[C@H](CC(=O)O)NC(=O)[C@@H](NC(=O)[C@H](CO)NC(=O)[C@H](CC(C)C)NC(=O)[C@H](CO)NC(=O)[C@@H]1CCCN1C(=O)[C@H](CC(N)=O)NC(=O)[C@@H](N)CC(=O)O)[C@@H](C)CC)[C@@H](C)CC)[C@@H](C)O)[C@@H](C)O)C(=O)N[C@@H](Cc1ccccc1)C(=O)N[C@@H](CC(=O)O)C(=O)N[C@@H](CCCNC(=N)N)C(=O)N[C@H](C(N)=O)C(C)C [compound 337] (H-DNPSLSIDLPLILLRTLLELEKTQSQRERAEQNARIFDRV-NH2; N-terminus assumed) | 86.7 | 36.5 | 7.62 | ≤ 6.00 |  | 
CC[C@H](C)[C@H](N)C(=O)N[C@H](C(=O)N[C@@H](CC(C)C)C(=O)N[C@@H](CO)C(=O)N[C@@H](CC(C)C)C(=O)N[C@@H](CC(=O)O)C(=O)N[C@H](C(=O)N1CCC[C@H]1C(=O)N[C@H](C(=O)NCC(=O)N[C@@H](CC(C)C)C(=O)N[C@@H](CC(C)C)C(=O)N[C@@H](CCC(N)=O)C(=O)N[C@H](C(=O)N[C@@H](CC(C)C)C(=O)N[C@H](C(=O)N[C@@H](CCC(=O)O)C(=O)N[C@H](C(=O)N[C@@H](CCC(=O)O)C(=O)N[C@@H](CCCCN)C(=O)N[C@@H](CCC(N)=O)C(=O)N[C@@H](CCC(=O)O)C(=O)N[C@@H](CCCCN)C(=O)N[C@@H](CCC(=O)O)C(=O)N[C@@H](CCCCN)C(=O)N[C@@H](CCC(N)=O)C(=O)N[C@@H](CCC(N)=O)C(=O)N[C@@H](C)C(=O)N[C@@H](C)C(=O)N[C@@H](CC(N)=O)C(=O)N[C@@H](CC(N)=O)C(=O)N[C@@H](C)C(=O)N[C@@H](CCCNC(=N)N)C(=O)N[C@H](C(=O)N[C@@H](CC(C)C)C(=O)N[C@@H](C)C(=O)N[C@@H](CCCNC(=N)N)C(=O)N[C@H](C(N)=O)C(C)C)[C@@H](C)CC)[C@@H](C)CC)[C@@H](C)CC)[C@@H](C)CC)[C@@H](C)CC)C(C)C)C(C)C [compound 166] (H-IVLSLDVPIGLLQILIEIEKQEKEKQQAANNARILARV-NH2; N-terminus assumed) | 99 | 95 |  |  | 8.43 | 6.36
